From patent US9138479B2, “Formulations for the treatment of diabetes” (XERIS PHARMACEUTICALS, INC., priority 2011, dated 2015)

Assay: Pramlintide solubility in DMSO and DMSO-water co-solvents (visual inspection)
Format: physicochemical
Settings: pH memory 2.0; 20 mg/mL in neat DMSO
Procedure: • 3b. […] The resulting solutions are assessed visually for clarity and/or analyzed for light scattering using visible spectroscopy at […], and used in various downstream applications.
Solutions of pramlintide were prepared at a concentration of 2 mg/mL in 10 mM citrate, pH 2.0, or 10 mM citrate, pH 4.0, each with or without 2 mg/mL trehalose. The solutions were dried by centrifugation under vacuum for approximately 3.5 hours at 25-30° C., or lyophilized as described above.

- appearance of solution by visual inspection: flowable and completely clear
Structure (SMILES): CC[C@H](C)[C@H](NC(=O)[C@@H]1CCCN1C(=O)CNC(=O)[C@H](Cc1ccccc1)NC(=O)[C@H](CC(N)=O)NC(=O)[C@H](CC(N)=O)NC(=O)[C@H](CO)NC(=O)[C@H](CO)NC(=O)[C@H](Cc1c[nH]cn1)NC(=O)[C@@H](NC(=O)[C@H](CC(C)C)NC(=O)[C@H](Cc1ccccc1)NC(=O)[C@H](CC(N)=O)NC(=O)[C@H](C)NC(=O)[C@H](CC(C)C)NC(=O)[C@H](CCCNC(=N)N)NC(=O)[C@H](CCC(N)=O)NC(=O)[C@@H](NC(=O)[C@H](C)NC(=O)[C@@H]1CSSC[C@H](NC(=O)[C@@H](N)CCCCN)C(=O)N[C@@H](CC(N)=O)C(=O)N[C@@H]([C@@H](C)O)C(=O)N[C@@H](C)C(=O)N[C@@H]([C@@H](C)O)C(=O)N1)[C@@H](C)O)C(C)C)C(=O)N[C@@H](CC(C)C)C(=O)N1CCC[C@H]1C(=O)N1CCC[C@H]1C(=O)N[C@H](C(=O)N[C@@H](CC(N)=O)C(=O)N[C@H](C(=O)NCC(=O)N[C@@H](CO)C(=O)N[C@@H](CC(N)=O)C(=O)N[C@H](C(=O)N[C@@H](Cc1ccc(O)cc1)C(N)=O)[C@@H](C)O)C(C)C)[C@@H](C)O [pramlintide]
